According to a compilation of properties of binary mixtures (doi:10.1016/j.molliq.2014.08.031):

Test: xn = mol fraction of the nth substance listed
Settings: 101 kPa

CCCC[n+]1ccn(C)c1.CS(=O)(=O)[O-] + O
Settings | electrical conductivity [S/m] | viscosity [mPa·s]
328.15 K, x2 = 0.796 | 3.01 | –
328.15 K, x2 = 0.861 | 5.12 | –
328.15 K, x2 = 0.892 | 6.23 | –
328.15 K, x2 = 0.929 | 7.21 | –
328.15 K, x2 = 0.968 | 7 | –
329.15 K, x1 = 0.004 | 2.04 | –
329.15 K, x1 = 0.008 | 3.67 | –
329.15 K, x1 = 0.019 | 5.81 | –
329.15 K, x2 = 0.785 | 2.9 | –
329.15 K, x2 = 0.796 | 3.05 | –
329.15 K, x2 = 0.861 | 5.25 | –
329.15 K, x2 = 0.892 | 6.26 | –
329.15 K, x2 = 0.929 | 7.35 | –
329.15 K, x2 = 0.951 | 7.83 | –
330.15 K, x1 = 0.004 | 2.09 | –
330.15 K, x1 = 0.008 | 3.72 | –
330.15 K, x1 = 0.019 | 5.88 | –
330.15 K, x2 = 0.704 | 1.84 | –
330.15 K, x2 = 0.785 | 2.98 | –
330.15 K, x2 = 0.861 | 5.37 | –
330.15 K, x2 = 0.892 | 6.36 | –
330.15 K, x2 = 0.929 | 7.5 | –
330.15 K, x2 = 0.951 | 7.95 | –
330.15 K, x2 = 0.968 | 7.38 | –
331.15 K, x1 = 0.004 | 2.13 | –
331.15 K, x1 = 0.008 | 3.77 | –
331.15 K, x2 = 0.785 | 3.04 | –
331.15 K, x2 = 0.796 | 3.2 | –
331.15 K, x2 = 0.892 | 6.46 | –
331.15 K, x2 = 0.929 | 7.61 | –
331.15 K, x2 = 0.951 | 8.05 | –
331.15 K, x2 = 0.968 | 7.39 | –
332.15 K, x1 = 0.004 | 2.15 | –
332.15 K, x1 = 0.008 | 3.83 | –
332.15 K, x1 = 0.019 | 6.06 | –
332.15 K, x2 = 0.704 | 1.99 | –
332.15 K, x2 = 0.785 | 3.13 | –
332.15 K, x2 = 0.796 | 3.29 | –
332.15 K, x2 = 0.861 | 5.61 | –
332.15 K, x2 = 0.892 | 6.57 | –
332.15 K, x2 = 0.968 | 7.57 | –
333.15 K, x1 = 0.004 | 2.17 | –
333.15 K, x1 = 0.008 | 3.78 | –
333.15 K, x1 = 0.019 | 6.17 | –
333.15 K, x2 = 0.5596 | – | 14
333.15 K, x2 = 0.6542 | – | 9.62
333.15 K, x2 = 0.704 | 2.04 | –
333.15 K, x2 = 0.7495 | – | 6.25
333.15 K, x2 = 0.785 | 3.21 | –
333.15 K, x2 = 0.796 | 3.36 | –
333.15 K, x2 = 0.8521 | – | 3.29
333.15 K, x2 = 0.861 | 5.75 | –
333.15 K, x2 = 0.892 | 6.73 | –
333.15 K, x2 = 0.9254 | – | 1.742
333.15 K, x2 = 0.929 | 7.9 | –
333.15 K, x2 = 0.951 | 8.3 | –
333.15 K, x2 = 0.975 | – | 0.79
334.15 K, x1 = 0.004 | 2.18 | –
334.15 K, x1 = 0.008 | 3.93 | –
334.15 K, x1 = 0.019 | 6.35 | –
334.15 K, x2 = 0.704 | 2.12 | –
334.15 K, x2 = 0.785 | 3.28 | –
334.15 K, x2 = 0.796 | 3.43 | –
334.15 K, x2 = 0.861 | 5.94 | –
334.15 K, x2 = 0.892 | 6.95 | –
334.15 K, x2 = 0.929 | 8.03 | –
334.15 K, x2 = 0.951 | 8.46 | –
335.15 K, x1 = 0.008 | 3.98 | –
335.15 K, x1 = 0.019 | 6.33 | –
335.15 K, x2 = 0.704 | 2.17 | –
335.15 K, x2 = 0.785 | 3.35 | –
335.15 K, x2 = 0.796 | 3.52 | –
335.15 K, x2 = 0.861 | 5.97 | –
335.15 K, x2 = 0.892 | 7.12 | –
335.15 K, x2 = 0.929 | 8.18 | –
335.15 K, x2 = 0.951 | 8.59 | –
335.15 K, x2 = 0.968 | 7.93 | –
336.15 K, x1 = 0.008 | 4.04 | –
336.15 K, x1 = 0.019 | 6.42 | –
336.15 K, x2 = 0.704 | 2.19 | –
336.15 K, x2 = 0.785 | 3.42 | –
336.15 K, x2 = 0.796 | 3.59 | –
336.15 K, x2 = 0.861 | 6.09 | –
336.15 K, x2 = 0.892 | 7.28 | –
336.15 K, x2 = 0.929 | 8.3 | –
336.15 K, x2 = 0.968 | 8.02 | –
337.15 K, x1 = 0.004 | 2.29 | –
337.15 K, x1 = 0.008 | 4.1 | –
337.15 K, x1 = 0.019 | 6.53 | –
337.15 K, x2 = 0.704 | 2.3 | –
337.15 K, x2 = 0.785 | 3.52 | –
337.15 K, x2 = 0.892 | 7.41 | –
337.15 K, x2 = 0.951 | 8.9 | –
337.15 K, x2 = 0.968 | 8.19 | –
338.15 K, x1 = 0.004 | 2.31 | –
338.15 K, x1 = 0.008 | 4.15 | –
338.15 K, x2 = 0.704 | 2.35 | –
338.15 K, x2 = 0.892 | 7.53 | –
338.15 K, x2 = 0.929 | 8.57 | –
338.15 K, x2 = 0.968 | 8.14 | –
339.15 K, x1 = 0.004 | 2.35 | –
339.15 K, x1 = 0.008 | 4.19 | –
339.15 K, x1 = 0.019 | 6.73 | –
339.15 K, x2 = 0.704 | 2.42 | –
339.15 K, x2 = 0.785 | 3.67 | –
339.15 K, x2 = 0.796 | 3.85 | –
339.15 K, x2 = 0.861 | 6.47 | –
339.15 K, x2 = 0.892 | 7.69 | –
339.15 K, x2 = 0.929 | 8.73 | –
339.15 K, x2 = 0.951 | 9.11 | –
340.15 K, x1 = 0.004 | 2.39 | –
340.15 K, x1 = 0.008 | 4.25 | –
340.15 K, x1 = 0.019 | 6.83 | –
340.15 K, x2 = 0.704 | 2.47 | –
340.15 K, x2 = 0.785 | 3.75 | –
340.15 K, x2 = 0.796 | 3.93 | –
340.15 K, x2 = 0.861 | 6.6 | –
340.15 K, x2 = 0.892 | 7.77 | –
340.15 K, x2 = 0.929 | 8.85 | –
340.15 K, x2 = 0.951 | 9.22 | –
340.15 K, x2 = 0.968 | 8.56 | –
341.15 K, x1 = 0.004 | 2.42 | –
341.15 K, x1 = 0.008 | 4.29 | –
341.15 K, x1 = 0.019 | 6.96 | –
341.15 K, x2 = 0.704 | 2.54 | –
341.15 K, x2 = 0.785 | 3.84 | –
341.15 K, x2 = 0.796 | 4.07 | –
341.15 K, x2 = 0.861 | 6.71 | –
341.15 K, x2 = 0.929 | 9.03 | –
341.15 K, x2 = 0.951 | 9.15 | –
341.15 K, x2 = 0.968 | 8.57 | –
342.15 K, x1 = 0.008 | 4.35 | –
342.15 K, x1 = 0.019 | 6.93 | –
342.15 K, x2 = 0.704 | 2.61 | –
342.15 K, x2 = 0.796 | 4.11 | –
342.15 K, x2 = 0.929 | 9.18 | –
342.15 K, x2 = 0.951 | 9.55 | –
342.15 K, x2 = 0.968 | 8.66 | –
343.15 K, x1 = 0.008 | 4.38 | –
343.15 K, x1 = 0.019 | 7.17 | –
343.15 K, x2 = 0.5596 | – | 10.6
